Experimental findings from paper PMC4926077, “Synthesis of Pelorol and Its Analogs and Their Inhibitory Effects on Phosphatidylinositol 3-Kinase” (Marine Drugs, 2016) are described below.

Read-outs that look alike come from different tables or passages of the source. A value given as a limit tells only on which side of the number the result lay.

The test system of one test is Hela. Kind of test: Antiproliferative CCK8 assay, Hela. The class given is cell-based. The settings on record: Homo sapiens, 72 h incubation, average of three replicates, read-out: Relative IC50 against tumor cell line Hela. How it is done:
(§1) The following cell lines, MCF-7, SK-BR-3, K562, Hela, MOLT-4, DU145, U937, and PC3 were purchased from Shanghai Cell Bank, Chinese Academy of Sciences. The cells were maintained at 37 °C in a 5% CO2 incubator in DMEM (Gibco, Invitrogen, Carlsbad, CA, USA) or RPMI1640 (Gibco, Invitrogen) containing 10% FBS. Cell proliferation was determined by CCK8 assay (DOjinDo, Kyoto, Japan). Cells were seeded at a density of 800–1000 cells/well in 384 well plates and treated with solvent control or various concentration of compounds. After 72 h incubation, CCK8 reagent was added and absorbance was measured at 450 nm by using Envision 2104 multi-label Reader (Perkin Elmer, Waltham, MA, USA). Dose-response curves were plotted to determine the IC50 values using Prism 5.0 (Graph Pad software Inc., San Diego, CA, USA).
Background: Tetrazolium dyes change colour on reduction, which living cells bring about.

In the next test the test system is U937. Kind of test: Antiproliferative CCK8 assay, U937. The class given is cell-based. The following applies: Homo sapiens, U-937, leukemia cell, 72 h incubation, average of three replicates, read-out: Relative IC50 against tumor cell line U937. The procedure: as §1
For the next test, the system named is K562. Kind of test: Antiproliferative CCK8 assay, K562. The class given is cell-based. The following applies: Homo sapiens, 72 h incubation, average of three replicates, read-out: Relative IC50 against tumor cell line K562. The procedure: as §1
In the next test the test system is SK-BR-3. The test can be described thus: Antiproliferative CCK8 assay, SK-BR-3. The class given is cell-based. The settings on record: Homo sapiens, 72 h incubation, average of three replicates, read-out: Relative IC50 against tumor cell line SK-BR-3. How it is done: as §1
Another test deals with MCF-7. The test can be described thus: Antiproliferative CCK8 assay, MCF-7. The class given is cell-based. The settings on record: Homo sapiens, MCF7, 72 h incubation, average of three replicates, read-out: Relative IC50 against tumor cell line MCF-7. The procedure:
as §1

The subject of another test is PC3. The test can be described thus: Antiproliferative CCK8 assay, PC3. The class given is cell-based. The following applies: Homo sapiens, PC-3, 72 h incubation, average of three replicates, read-out: Relative IC50 against tumor cell line PC3. How it is done:
as §1

In another test the target is PI3Kα (Homo sapiens, UniProt P42336). Kind of test: PI3K enzymatic activity assay (Kinase-Glo), PI3Kα. The class given is biochemical. The procedure:
(§2) We assumed that electronic effects might influence the inhibitory activity of compounds against PI3Kα. […] PI3K reactions were performed in 50 mM HEPES at pH 7.5 with 1 mM EGTA, 100 mM NaCl, 3 mM MgCl2, 2 mM DTT, and 0.03% CHAPS. All tested compounds were dissolved in 100% DMSO. PIP2 and ATP were used as substrates, and the final reaction volume was 10 μL. […] After incubating for 1 h at room temperature, the reactions were quenched by adding 10 μL of Kinase-Glo reagent. Raw data were collected from Flexstation program.
In general terms: In Kinase-Glo more light means more ATP remaining.

The test system of a further test is MOLT-4. Kind of test: Antiproliferative CCK8 assay, MOLT-4. The class given is cell-based. The settings on record: Homo sapiens, leukemia cell, 72 h incubation, average of three replicates, read-out: Relative IC50 against tumor cell line MOLT-4. How it is done:
as §1

The next test has as its system DU145. The test can be described thus: Antiproliferative CCK8 assay, DU145. The class given is cell-based. The following applies: Homo sapiens, DU-145, prostate cancer cell, 72 h incubation, average of three replicates, read-out: Relative IC50 against tumor cell line DU145. The procedure: as §1
For another test, the target named is PI3Kβ (Homo sapiens, UniProt P42338). The test can be described thus: PI3K enzymatic activity assay, PI3Kβ. The class given is biochemical. How it is done: as §2
A further test has as its target PI3Kγ (Homo sapiens, UniProt P48736). The test can be described thus: PI3K enzymatic activity assay, PI3Kγ. The class given is biochemical. The procedure: as §2
A further test concerns the target PI3Kδ (Homo sapiens, UniProt O00329). Kind of test: PI3K enzymatic activity assay, PI3Kδ. The class given is biochemical. The procedure:
as §2

Setting [1] is: average of three replicates, 25 μM ATP, 50 μM PIP2, 1 h, room temperature, read-out: IC50, inhibition against PI3Kα.

Chain of PI3Kα (P42336 whole entry, species assumed): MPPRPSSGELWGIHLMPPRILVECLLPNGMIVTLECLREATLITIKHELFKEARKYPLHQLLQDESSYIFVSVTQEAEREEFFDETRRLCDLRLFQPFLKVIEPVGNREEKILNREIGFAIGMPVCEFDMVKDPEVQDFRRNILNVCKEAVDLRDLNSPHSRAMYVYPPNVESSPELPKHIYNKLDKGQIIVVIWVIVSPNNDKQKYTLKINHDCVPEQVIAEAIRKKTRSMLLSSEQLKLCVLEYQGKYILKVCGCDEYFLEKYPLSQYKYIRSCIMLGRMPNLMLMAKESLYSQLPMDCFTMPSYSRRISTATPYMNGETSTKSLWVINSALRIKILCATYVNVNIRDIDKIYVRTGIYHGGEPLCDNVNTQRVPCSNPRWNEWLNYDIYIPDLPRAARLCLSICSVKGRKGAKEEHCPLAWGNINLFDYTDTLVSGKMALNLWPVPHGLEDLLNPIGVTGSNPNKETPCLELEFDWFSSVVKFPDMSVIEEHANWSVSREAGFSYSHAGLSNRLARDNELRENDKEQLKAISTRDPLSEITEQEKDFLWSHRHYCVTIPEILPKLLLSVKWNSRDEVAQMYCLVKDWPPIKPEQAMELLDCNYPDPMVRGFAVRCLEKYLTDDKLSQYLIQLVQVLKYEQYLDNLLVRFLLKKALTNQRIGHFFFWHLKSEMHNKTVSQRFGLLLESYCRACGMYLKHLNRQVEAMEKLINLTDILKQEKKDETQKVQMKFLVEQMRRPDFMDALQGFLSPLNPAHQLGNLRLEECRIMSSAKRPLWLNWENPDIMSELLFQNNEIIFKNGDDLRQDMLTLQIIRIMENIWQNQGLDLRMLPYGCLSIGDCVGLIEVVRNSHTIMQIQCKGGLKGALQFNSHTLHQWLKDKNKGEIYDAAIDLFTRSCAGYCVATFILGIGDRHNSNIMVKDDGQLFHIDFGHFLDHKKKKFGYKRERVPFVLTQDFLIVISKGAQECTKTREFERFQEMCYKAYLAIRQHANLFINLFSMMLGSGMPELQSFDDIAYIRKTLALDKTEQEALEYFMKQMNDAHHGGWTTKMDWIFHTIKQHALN
Chain of PI3Kα (P27986 whole entry partner, species assumed): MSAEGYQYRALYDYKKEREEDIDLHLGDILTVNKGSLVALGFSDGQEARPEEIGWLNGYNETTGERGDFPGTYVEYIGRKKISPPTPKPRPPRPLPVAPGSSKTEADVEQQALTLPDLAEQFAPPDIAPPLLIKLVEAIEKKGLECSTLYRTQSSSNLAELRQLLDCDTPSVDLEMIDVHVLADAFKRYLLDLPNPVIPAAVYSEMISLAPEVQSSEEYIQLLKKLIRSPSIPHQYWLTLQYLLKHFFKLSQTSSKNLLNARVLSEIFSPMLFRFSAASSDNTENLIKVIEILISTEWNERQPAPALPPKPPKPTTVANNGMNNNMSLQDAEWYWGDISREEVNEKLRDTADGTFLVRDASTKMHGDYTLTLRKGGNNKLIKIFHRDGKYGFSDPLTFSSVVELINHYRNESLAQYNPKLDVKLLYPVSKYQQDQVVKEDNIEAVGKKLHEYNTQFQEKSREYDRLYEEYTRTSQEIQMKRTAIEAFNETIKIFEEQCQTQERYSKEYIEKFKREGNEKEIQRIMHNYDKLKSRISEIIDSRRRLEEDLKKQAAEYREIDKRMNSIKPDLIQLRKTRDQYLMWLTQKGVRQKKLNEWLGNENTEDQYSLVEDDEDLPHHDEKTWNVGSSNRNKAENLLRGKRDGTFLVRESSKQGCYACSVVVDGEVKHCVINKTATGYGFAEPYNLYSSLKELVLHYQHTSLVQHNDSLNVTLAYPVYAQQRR
Chain of PI3Kδ (O00329 whole entry, species assumed): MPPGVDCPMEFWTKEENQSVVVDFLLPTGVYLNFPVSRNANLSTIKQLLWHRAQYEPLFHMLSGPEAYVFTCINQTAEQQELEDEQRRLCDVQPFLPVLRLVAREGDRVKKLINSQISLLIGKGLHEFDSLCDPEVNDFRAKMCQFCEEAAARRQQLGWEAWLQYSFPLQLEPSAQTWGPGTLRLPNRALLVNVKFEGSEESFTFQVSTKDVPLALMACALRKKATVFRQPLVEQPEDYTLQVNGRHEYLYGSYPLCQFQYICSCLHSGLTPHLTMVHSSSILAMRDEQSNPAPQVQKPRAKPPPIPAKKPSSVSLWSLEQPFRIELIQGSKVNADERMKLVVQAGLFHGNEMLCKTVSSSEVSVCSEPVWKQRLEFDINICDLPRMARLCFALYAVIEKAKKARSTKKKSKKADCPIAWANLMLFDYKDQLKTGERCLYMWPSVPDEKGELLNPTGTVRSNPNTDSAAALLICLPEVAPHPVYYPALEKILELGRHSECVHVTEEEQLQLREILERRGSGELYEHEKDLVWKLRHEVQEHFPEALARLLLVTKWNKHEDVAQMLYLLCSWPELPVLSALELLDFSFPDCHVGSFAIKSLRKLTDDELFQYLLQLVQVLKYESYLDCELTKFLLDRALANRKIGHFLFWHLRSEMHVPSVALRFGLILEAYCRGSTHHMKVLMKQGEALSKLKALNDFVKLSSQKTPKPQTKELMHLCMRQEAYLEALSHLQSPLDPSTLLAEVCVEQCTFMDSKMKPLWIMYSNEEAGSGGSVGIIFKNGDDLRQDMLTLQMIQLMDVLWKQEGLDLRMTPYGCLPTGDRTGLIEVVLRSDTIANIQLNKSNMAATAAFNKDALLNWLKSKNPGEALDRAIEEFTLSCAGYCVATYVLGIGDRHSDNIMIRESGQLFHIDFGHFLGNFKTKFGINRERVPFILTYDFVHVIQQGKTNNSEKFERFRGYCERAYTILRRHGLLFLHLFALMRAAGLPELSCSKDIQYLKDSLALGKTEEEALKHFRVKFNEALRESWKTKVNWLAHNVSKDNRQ
Chain of PI3Kδ (P27986 whole entry partner, species assumed): as the sequence (P27986 whole entry partner, species assumed) above
Chain of PI3Kγ (P48736 whole entry, species assumed): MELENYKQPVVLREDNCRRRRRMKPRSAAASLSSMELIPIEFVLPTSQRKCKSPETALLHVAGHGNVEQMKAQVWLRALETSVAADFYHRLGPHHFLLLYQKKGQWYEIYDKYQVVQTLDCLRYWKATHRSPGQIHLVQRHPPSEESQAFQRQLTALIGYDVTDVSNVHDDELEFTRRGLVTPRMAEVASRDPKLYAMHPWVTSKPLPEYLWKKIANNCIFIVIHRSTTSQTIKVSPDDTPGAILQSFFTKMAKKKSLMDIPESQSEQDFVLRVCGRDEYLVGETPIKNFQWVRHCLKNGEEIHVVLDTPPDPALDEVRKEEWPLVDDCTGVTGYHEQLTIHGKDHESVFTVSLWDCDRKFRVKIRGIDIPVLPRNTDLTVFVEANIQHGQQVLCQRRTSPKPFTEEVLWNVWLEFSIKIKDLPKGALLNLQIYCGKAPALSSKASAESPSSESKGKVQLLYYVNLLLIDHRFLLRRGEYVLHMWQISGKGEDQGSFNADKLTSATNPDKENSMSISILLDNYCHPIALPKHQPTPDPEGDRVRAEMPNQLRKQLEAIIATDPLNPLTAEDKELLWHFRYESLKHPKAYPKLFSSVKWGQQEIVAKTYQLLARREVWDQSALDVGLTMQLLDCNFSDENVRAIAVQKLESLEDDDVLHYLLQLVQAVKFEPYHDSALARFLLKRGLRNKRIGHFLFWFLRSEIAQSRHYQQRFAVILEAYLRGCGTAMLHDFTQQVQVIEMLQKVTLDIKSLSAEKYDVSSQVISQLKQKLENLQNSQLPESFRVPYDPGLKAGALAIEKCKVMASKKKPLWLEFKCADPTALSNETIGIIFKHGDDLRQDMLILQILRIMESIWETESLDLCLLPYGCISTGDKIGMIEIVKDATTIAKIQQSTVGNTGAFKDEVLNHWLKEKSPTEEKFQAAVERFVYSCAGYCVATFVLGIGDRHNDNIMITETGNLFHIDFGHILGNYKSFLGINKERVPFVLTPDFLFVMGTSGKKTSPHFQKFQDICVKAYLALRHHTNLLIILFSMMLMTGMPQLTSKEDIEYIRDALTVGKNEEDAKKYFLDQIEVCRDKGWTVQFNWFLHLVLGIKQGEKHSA
Chain of PI3Kβ (P42338 whole entry, species assumed): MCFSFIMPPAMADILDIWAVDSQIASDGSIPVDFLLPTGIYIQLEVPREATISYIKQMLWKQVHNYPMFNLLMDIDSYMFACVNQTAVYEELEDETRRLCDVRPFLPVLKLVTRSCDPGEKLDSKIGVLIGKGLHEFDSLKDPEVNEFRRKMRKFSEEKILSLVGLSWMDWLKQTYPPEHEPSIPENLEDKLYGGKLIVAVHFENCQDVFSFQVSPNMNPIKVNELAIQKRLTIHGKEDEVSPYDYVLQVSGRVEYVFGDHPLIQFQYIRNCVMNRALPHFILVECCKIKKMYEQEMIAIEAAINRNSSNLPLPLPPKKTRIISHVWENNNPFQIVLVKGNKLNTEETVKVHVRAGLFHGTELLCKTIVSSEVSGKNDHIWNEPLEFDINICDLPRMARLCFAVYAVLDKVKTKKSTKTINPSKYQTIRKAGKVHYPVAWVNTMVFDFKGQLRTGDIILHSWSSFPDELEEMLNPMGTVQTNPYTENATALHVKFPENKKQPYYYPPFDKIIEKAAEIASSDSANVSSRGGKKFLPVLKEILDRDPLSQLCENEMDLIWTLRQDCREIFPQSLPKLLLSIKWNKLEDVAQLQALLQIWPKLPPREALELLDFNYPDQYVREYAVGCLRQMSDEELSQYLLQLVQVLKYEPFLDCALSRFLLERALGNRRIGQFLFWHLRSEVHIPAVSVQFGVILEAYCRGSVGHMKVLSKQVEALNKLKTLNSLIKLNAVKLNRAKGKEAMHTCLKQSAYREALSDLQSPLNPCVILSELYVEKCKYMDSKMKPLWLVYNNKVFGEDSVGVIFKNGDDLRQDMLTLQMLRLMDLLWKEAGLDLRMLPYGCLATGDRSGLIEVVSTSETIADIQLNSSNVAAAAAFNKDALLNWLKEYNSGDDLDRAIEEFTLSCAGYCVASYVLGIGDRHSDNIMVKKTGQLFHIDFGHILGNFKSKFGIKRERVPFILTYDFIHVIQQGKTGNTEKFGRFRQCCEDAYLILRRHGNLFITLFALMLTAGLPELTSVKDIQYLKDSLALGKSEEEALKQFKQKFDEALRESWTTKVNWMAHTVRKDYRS
Chain of PI3Kβ (P27986 whole entry partner, species assumed): as the sequence (P27986 whole entry partner, species assumed) above

For the molecule `COC(=O)c1cc(O)c(O)c2c1[C@]1(C)CC[C@H]3C(C)(C)CCC[C@]3(C)[C@H]1C2` [Compound 1, Pelorol], the IC50 with Hela, with U937, with K562, with SK-BR-3, with MCF-7 and with PC3 was > 30 µM throughout. The results for the IC50 at PI3Kα, in the test with MOLT-4 and with DU145 were 38.2 µM, > 30 µM and 72.7 µM, respectively.

In the case of `CC1(C)CCC[C@]2(C)[C@H]3Cc4c(O)c(O)cc(C(=O)O)c4[C@]3(C)CC[C@@H]12` [Compound 2, (4aS,6aR,11aR,11bS)-9,10-diHydroxy-4,4,6a,11b-tetramethyl-2,3,4,4a,5,6,6a,11,11a,11b-decahydro-1H-benzo[a]fluorene-7-carboxylic acid], the IC50 (as a rule, the concentration at which inhibition is half-maximal) with K562 was > 30 µM; with MCF-7, > 30 µM; in the test on PC3 it was > 30 µM; at PI3Kα (setting [1]), 20.7 µM; in the test with DU145, > 30 µM.

As for `CC(=O)c1cc(O)c(O)c2c1[C@]1(C)CC[C@H]3C(C)(C)CCC[C@]3(C)[C@H]1C2` [Compound 3, 1-((4aS,6aR,11aR,11bS)-9,10-diHydroxy-4,4,6a,11b-tetramethyl-2,3,4,4a,5,6,6a,11,11a,11b-decahydro-1H-benzo[a]fluoren-7-yl)ethanone], the IC50 in the test on Hela, in the test with U937, in the test with K562, in the test on SK-BR-3, in the test on MCF-7 and in the test on PC3 was > 30 µM each time. Further, the IC50 was 8.76 µM on PI3Kα (setting [1]), 22.3 µM in the test with MOLT-4 and > 30 µM in the test with DU145.

For the molecule `CCc1cc(O)c(O)c2c1[C@]1(C)CC[C@H]3C(C)(C)CCC[C@]3(C)[C@H]1C2` [Compound 4, (4aS,6aR,11aR,11bS)-7-Ethyl-4,4,6a,11b-tetramethyl-2,3,4,4a,5,6,6a,11,11a,11b-decahydro-1H-benzo [a]fluorene-9,10-diol], the half-inhibitory concentration (IC50) in the test with Hela, in the test on U937, in the test on K562, with SK-BR-3, in the test with MCF-7 and with PC3 was > 30 µM each time. For the same molecule, the IC50 is 83.7 µM at PI3Kα (setting [1]), > 30 µM with MOLT-4 and > 30 µM in the test on DU145.

On to `CC1(C)CCC[C@]2(C)[C@H]3Cc4c(O)c(O)cc(C=O)c4[C@]3(C)CC[C@@H]12` [Compound 5, (4aS,6aR,11aR,11bS)-9,10-diHydroxy-4,4,6a,11b-tetramethyl-2,3,4,4a,5,6,6a,11,11a,11b-decahydro-1H-benzo[a]fluorene-7-carbaldehyde], for which the IC50 was 8.9 µM against PI3Kβ; > 100 µM at PI3Kγ; 13.2 µM in the test with Hela; 5.99 µM in the test on U937; > 100 µM against PI3Kδ; 16.1 µM with K562. The half-inhibitory concentration (IC50) in the test on SK-BR-3 turned out to be 19.1 µM; in the test on MCF-7, 38.9 µM; in the test with PC3 it was 18.4 µM; on PI3Kα (setting [1]), 5.06 µM; in the test with MOLT-4, 4.27 µM; in the test on DU145, 9.01 µM.

`CC1(C)CCC[C@]2(C)[C@H]3Cc4c(O)c(O)cc(C#N)c4[C@]3(C)CC[C@@H]12` [Compound 6, (4aS,6aR,11aR,11bS)-9,10-diHydroxy-4,4,6a,11b-tetramethyl-2,3,4,4a,5,6,6a,11,11a,11b-decahydro-1H-benzo[a]fluorene-7-carbonitrile]: the IC50 with Hela is 12.1 µM; in the test on U937, 12.8 µM; with K562 it was > 30 µM; in the test with SK-BR-3, > 30 µM; in the test with MCF-7 it was 16.5 µM; with PC3, > 30 µM. The results for the concentration for half-maximal inhibition (IC50) at PI3Kα (setting [1]), in the test with MOLT-4 and with DU145 were 49.5 µM, 2.89 µM and 8.13 µM, respectively.

For the molecule `CCc1cc(OC)c(OC)c2c1[C@]1(C)CC[C@H]3C(C)(C)CCC[C@]3(C)[C@H]1C2` [Compound 20, (4aS,6aR,11aR,11bS)-7-Ethyl-9,10-diMethoxy-4,4,6a,11b-tetramethyl-2,3,4,4a,5,6,6a,11,11a,11b-decahydro-1H-benzo[a]fluorene], the IC50 on PI3Kα (setting [1]) is > 100 µM.
